Test [1] deals with 1:1 mixture of recombinant PKC-α and -β2 isozymes. The note with it: 1:1 mixture α and β, cited from earlier work; for Log(IC50/M): given as log of IC50 in M (negative).
A further test deals with PKC-β. The note with it: cited from earlier work; for Log(IC50/M): given as log of IC50 in M (negative).
The next test has as its system PKC-α. The note with it: cited from earlier work; for Log(IC50/M): given as log of IC50 in M (negative).
In test [2] the test system is bovine aortic endothelial cells (BAECs). The experiment in a line: VEGF-induced tube formation assay. The class given is cell-based. The note with it: for IC50: Bos taurus, BAEC; for antiangiogenic activity in tube formation: pure compounds, maximum concentration 30 μM. The procedure: The experiment was performed according to Arnaoutova and Kleinman ([Arnaoutova and Kleinman, 2010]). Briefly, BAECs (1.5 × 10^4 cells) were placed on a 96-well plate previously coated with Matrigel®. The plates were incubated for 18 h (37°C, 5% CO2) in the presence and absence of the tested extracts or the pure compounds, at a maximum concentration of 100 μg/ml and 30 μM, respectively, with the addition of VEGF (10 ng/ml) as angiogenic stimuli. […] Controls without or with ethanol (negative control) were simultaneously run. The final concentration of vehicle per well in this and all the experiments described herein was 1% v/v. […] The images were obtained with an inverted microscope and analyzed with the ImageJ software. The tubular structures were quantified. The percentages of inhibition (I%) were calculated as I% = [1−(total tube length treatment/total tube length control)] × 100. Each condition was assessed in triplicate. Each experiment was performed independently three times.

In another test the test system is MDA-MB-231 cells. The experiment in a line: Matrigel (Boyden chamber) invasion assay, MDA-MB-231. Type of test: cell-based, human. The following applies: 30 μM, 16 h, 10% FBS chemoattractant.
For another test, the system named is BAEC cells. Put plainly: Matrigel (Boyden chamber) invasion assay, BAEC. Type of test: cell-based, bovine. The note with it: 24 h, VEGF 10 ng/ml chemoattractant, relative to control.

Read-outs that look alike come from different tables or passages of the source.

On to `c1csc(-c2ccc(-c3cccs3)s2)c1` [TT, Terthiophene], for which, in test [1] (ref Kim et al. (1998)), the IC50 is 10 µM and the “Log(IC50/M)” value is reported as −5.0000.
As to `Cn1cc(C2=C(c3cn(C4CCN(Cc5ccccn5)CC4)c4ccccc34)C(=O)NC2=O)c2ccccc21` [ENZ, Enzastaurin], in the test with PKC-β (PKC β, ref Graff et al. (2005)), the IC50 was […] and the “Log(IC50/M)” value was […].
On to `CN1CCN(c2nc(C3=C(c4c[nH]c5ccccc45)C(=O)NC3=O)c3ccccc3n2)CC1` [NVP, 3-(1H-indol-3-yl)-4-[2-(4-methylpiperazin-1-yl)quinazolin-4-yl]-1H-pyrrole-2,5-dione], for which the “Log(IC50/M)” value with PKC-α (PKC α, ref Evenou et al. (2009)) is recorded as −9.0223.
In the case of `OCc1ccc(-c2ccc(-c3cccs3)s2)s1` [Compound 3, 5-hydroxymethyl-2,2':5′,2″-terthiophene], the IC50 in test [2] (conversion of the μM value, read-out: IC50 tube formation expressed) was roughly 0.8 µg/mL; in test [2] (pure compound, VEGF-induced, 18 h, read-out: IC50 tube formation), 2.7 ± 0.4 µM; in the test with PKC-β (listed for PKC β, source assay used 1:1 mixture of PKC-α and -β2, ref Kim et al. (1998)), 4 µM; in test [1] (ref Kim et al. (1998)), 4 µM. Moreover, the “antiangiogenic effect compared with axitinib 10 μM” value in test [2] (at 1.2 μM, p > 0.05) is given as “comparable to that of 10 μM of the potent angiogenesis inhibitor axitinib”. Besides, the “Log(IC50/M)” value is on record as −5.3979 in the test on PKC-β (listed for PKC β, ref Kim et al. (1998)) and −5.3979 in the test on PKC-α (listed for PKC α, ref Kim et al. (1998)). The “reduction of cell invasion” value in the test on MDA-MB-231 cells worked out at 32.7 ± 3.1%. Moreover, the invasive cells worked out at 15.7 ± 2.5% in the test on BAEC cells (10 μM) and 1.6 ± 0.4% with BAEC cells (30 μM).
With `Cc1ccc(-c2ccc(C#CCCO)s2)s1` [Compound 1, 5′-methyl-[5-(4-hydroxy-1-butynyl)]-2,2′-bithiophene], the “antiangiogenic activity in tube formation” value in test [2] is recorded as “devoid of activity”.
Still for that read-out and setting: in the case of `OCCC#Cc1ccc(-c2cccs2)s1` [Compound 2, 5-(4-hydroxybut-1-ynyl)-2,2′-bithiophene] it was “devoid of activity”.
With `CC1CNCCN1S(=O)(=O)c1cccc2cnccc12` (stereo not drawn) [H7, 1-(5-Isoquinolinesulfonyl)-2-methylpiperazine], in test [1] (ref Kinsella et al. (1992)), the IC50 is 40 µM and the “Log(IC50/M)” value is on record as −4.3979.
For the compound `O=Cc1ccc(-c2ccc(-c3ccc(C=O)s3)s2)s1` [DAT], in test [1] (ref Kim et al. (1998)), the IC50 was 0.3 µM and the “Log(IC50/M)” value is recorded as −6.5229.
Consider `CN(C)C[C@@H]1CCn2cc(c3ccccc32)C2=C(C(=O)NC2=O)c2cn(c3ccccc23)CCO1` [RUB, Ruboxistaurin], for which, in the test with PKC-β (PKC β, ref Tang et al. (2008)), the IC50 is […] and the “Log(IC50/M)” value is […]. Moreover, in the test on PKC-α (PKC α, ref Tang et al. (2008)), the IC50 is […] and the “Log(IC50/M)” value is given as […].
With `N=C(N)NCCNS(=O)(=O)c1cccc2cnccc12` [H4, N-(2-guanidinoethyl)isoquinoline-5-sulfonamide], in test [1] (ref Kinsella et al. (1992)), the IC50 was 10 µM and the “Log(IC50/M)” value is recorded as −5.0000.

The values above are taken from paper PMC9597362, “The thiophene α-terthienylmethanol isolated from Tagetes minuta inhibits angiogenesis by targeting protein kinase C isozymes α and β2” (Frontiers in Pharmacology, 2022).
